The source of these data is ChEMBL document CHEMBL4368856, “Probing the hras-1Y i-motif with small molecules” (Medchemcomm, 2018).

The structures appear in SMILES notation. Activity calls are given as the source filed them. The calls are words filed in the database; no cut-off is given here.

Data set [1] in a line: Binding affinity to 5'-biotin-labelled HRAS-1 Y i-motif DNA (unknown origin) by surface plasmon resonance analysis.
Data set [2] is described as follows: Binding affinity to 5'-AlexaFluor 647-labelled HRAS-1 Y i-motif DNA (unknown origin) by fluorescence titration method.
The nature of data set [3]: Binding affinity to HRAS-1 Y i-motif DNA (unknown origin) in pH 6 D2O/DMSO assessed as chemical shift perturbation in i-motif imino proton at 15 to 16 ppm up to 150 uM by NMR analysis.
Data set [4] can be described thus: Binding affinity to HRAS-1 Y i-motif DNA (unknown origin) in pH 6 D2O/DMSO at 100 uM by 1H-WaterLOGSY NMR analysis.
Data set [5] in a line: Binding affinity to HRAS-1 Y i-motif DNA (unknown origin) in pH 6 D2O/DMSO assessed as chemical shift perturbation at 7 to 12 ppm up to 150 uM by NMR analysis.
Data set [6] can be described thus: Binding affinity to HRAS-1 Y i-motif DNA (unknown origin) assessed as change in melting temperature by thermal denaturation study.
The nature of data set [7]: Binding affinity to HRAS-1 Y i-motif DNA (unknown origin) in pH 6 D2O/DMSO assessed as chemical shift perturbation in Watson-Crick imino proton at 12.5 to 14 ppm up to 150 uM by NMR analysis.
Data set [8] in a line: Binding affinity to HRAS-1 Y i-motif DNA (unknown origin) in pH 8 D2O/DMSO at 100 uM by 1H-WaterLOGSY NMR analysis.
Data set [9] can be described thus: Binding affinity to HRAS-1 Y i-motif DNA (unknown origin) in pH 6 tris-acetate buffer assessed as confirmational change at 10 to 50 uM by circular dichroism analysis.
Data set [10] can be described thus: Binding affinity to 5'-AlexaFluor 647-labelled HRAS-1 Y i-motif DNA (unknown origin) after 1 hr by fluorescence assay.
A short description of data set [11]: Binding affinity to HRAS-1 Y i-motif DNA (unknown origin) in D2O/DMSO at 100 uM by 1H-WaterLOGSY NMR analysis.
A short description of data set [12]: Aggregation property of the compound in D2O/DMSO at 100 uM by 1H-WaterLOGSY NMR analysis. Type of data set: physicochemical.
Data set [13] is described as follows: Binding affinity to 5'-ATTO/3'-TAMRA labelled HRAS-1 Y i-motif DNA (unknown origin) up to 252 uM after 10 mins by FRET assay.

Take `COc1ccc(CCCNc2nc(N)nc3c2CCNCC3)cc1OC`: the values for the equilibrium dissociation constant (Kd) in data set [1] and in data set [2] were 78 µM and 30.8 µM, respectively.
Taken in the same sequence, the figures for `COc1cc(-c2ccc(C(C)N3CCCCC3)cc2)nc(N)n1` (stereo not given) were 51 µM and 254 µM.
For `COc1cc(N2CCCC(N(C)CCc3ccc(OC)c(OC)c3)C2)ncn1` (stereo not given), the values for the Kd in [1] and in data set [2] were 0.2 µM and 0.6 µM, respectively.
Turning to `CC(c1ccc(-c2cc(N3CCCC3)nc(N)n2)cc1)N(C)C` (stereo not given), the Kd in data set [1] is over 300 µM; in [2], 106 µM.
For `COc1ccc(CCN(C)C2CCCN(c3ccnc(N)n3)C2)cc1OC` (stereo not given), the result in data set [3], in [6], in [8] and in data set [9] was inactive. For the same molecule, the result in data set [4], in [5], in [7] and in data set [10] was Active. The Kd was determined as 5.9 µM in [1] and 35.6 µM in data set [2].
Regarding `Nc1nccc(N2CCCC(CCc3ccccc3)C2)n1` (stereo not given), the Kd is over 300 µM in data set [1] and over 209 µM in data set [2].
With `CC(c1ccc(-c2cc(N3CCOCC3)nc(N)n2)cc1)C(C)N1CCCC1` (stereo not given), the dissociation constant (Kd) in [1] worked out at 149 µM; in data set [2], 90.7 µM.
Taken in the same sequence, the figures for `COc1ccc(CCN(C)C2CCCN(c3cc(C)nc(N)n3)C2)cc1OC` (stereo not given) were 11.6 µM and 16 µM.
Regarding `CC(c1ccc(-c2cc(NCCO)nc(N)n2)cc1)N1CCCC1` (stereo not given), the result in data set [3], in data set [4], in [11], in [9] and in data set [10] was Active. The outcome in [5], in data set [6], in data set [7], in data set [8] and in data set [13] was inactive. Further, the Kd was 7.4 µM in data set [1] and 1.6 µM in data set [2]. Besides, the Activity result in data set [12] was “Not Active”.
On to `COc1ccc(CCN(C)C2CCCN(c3ccnc(N(C)C)n3)C2)cc1OC` (stereo not given), for which the figures for the Kd in [1] and in data set [2] were over 300 µM and 50.4 µM, respectively.
With `COc1ccc(CCN(C)C2CCCN(c3ccnc(C)n3)C2)cc1OC` (stereo not given), the Kd in data set [1] came to 0.3 µM; in data set [2], 3 µM.
As to `NCCn1cc(C(=O)NC2CCCN(Cc3cccc(O)c3)C2)nn1` (stereo not given), the results for the Kd in data set [1] and in data set [2] were 243 µM and over 209 µM, respectively.
On the same counts, the results for `COc1cc(-c2ccc(C(C)N3CCCC3)cc2)nc(N)n1` (stereo not given) are over 300 µM and over 209 µM.
